According to patent US20250214991A1 (Oncopia Therapeutics, Inc. d/b/a/ SK Life Science Labs, priority 2022, published 2025):

How the values were obtained:
IKZF2 [1] = target: T1, IKZF2 (Homo sapiens (Human), UniProt Q96SW2+Q9UKS7); assay: In vitro IKZF2 FACS Assay in Jurkat cells; type: cell-based; conditions: 24 hrs; for DC50: half maximal degradation concentration; for Dmax: maximal degradation percentage
Protocol: In vitro IKZF2 FACS Assay
DC50, A: <1 nM; B: 1-10 nM; C: 10-100 nM; D: 100-1000 nM; E: >1000 nM. Dmax, A: >80%; B: 60-80%; C: 40-60%; D: 20-40%; E: <20%.

IKZF2 [2] = target: T1, IKZF2; assay: In vitro IKZF2 HiBit Assay (HEK293T Flp-in-HiBiT cells); type: cell-based; conditions: HEK293T Flp-in-HiBiT cells, 6 hrs incubation; for DC50: read-out: IKZF2 HiBit DC50; for Dmax: HEK-293T, read-out: IKZF2 HiBit Dmax (%)
Summary of the method: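 HEK293T Flp-in cells carrying an endogenous N-terminal HiBiT tag on IKZF2 were exposed to compound for 6 h at 0.1% DMSO. The dilution series was 11 doses at 3-fold, diluted from 1 mM. Nano-Glo HiBiT lytic luminescence, normalized to DMSO, gave DC50 for 50% degradation and Dmax across the concentration range, both reported in letter bins.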

CRBN/DDB1 = CRBN/DDB1 (Homo sapiens (Human), UniProt Q96SW2); assay: IC50 measurements for binding to CRBN/DDB1 (HTRF); conditions: His tagged CRBN+DDB, Cy5-labeled Thalidomide probe, one hour
Summary of the method: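 HTRF competition binding with 2 nM His-tagged CRBN-DDB1 complex, 60 nM Cy5-thalidomide probe and 0.4 nM anti-His Tb cryptate in 50 mM HEPES pH 7.5, 1 mM TCEP, 0.01% Brij-35, 50 mM NaCl, 0.1% BSA. Read after 1 h at room temperature; IC50 from four-parameter dose-response fit.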

IKZF1 = IKZF1 (Homo sapiens (Human), UniProt Q13422+Q96SW2); assay: In vitro IKZF1 HiBit Assay (HEK293T Flp-in-HiBiT-IKZF1 stable cell line); type: cell-based; conditions: HEK293T Flp-in-HiBiT-IKZF1 stable cell line, 6 hrs incubation; for DC50: read-out: IKZF1 HiBit DC50; for Dmax: HEK-293T, read-out: IKZF1 HiBit Dmax (%)
Summary of the method: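 HEK293T Flp-in cells carrying N-terminal HiBiT-tagged IKZF1 were exposed to compound (0.1% DMSO) for 6 h at 3000 cells/well. HiBiT luminescence was read after lytic LgBiT detection. DC50 and Dmax were taken from DMSO-normalized dose-response curves.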

Chain of CRBN/DDB1 (Q96SW2 whole entry, species assumed): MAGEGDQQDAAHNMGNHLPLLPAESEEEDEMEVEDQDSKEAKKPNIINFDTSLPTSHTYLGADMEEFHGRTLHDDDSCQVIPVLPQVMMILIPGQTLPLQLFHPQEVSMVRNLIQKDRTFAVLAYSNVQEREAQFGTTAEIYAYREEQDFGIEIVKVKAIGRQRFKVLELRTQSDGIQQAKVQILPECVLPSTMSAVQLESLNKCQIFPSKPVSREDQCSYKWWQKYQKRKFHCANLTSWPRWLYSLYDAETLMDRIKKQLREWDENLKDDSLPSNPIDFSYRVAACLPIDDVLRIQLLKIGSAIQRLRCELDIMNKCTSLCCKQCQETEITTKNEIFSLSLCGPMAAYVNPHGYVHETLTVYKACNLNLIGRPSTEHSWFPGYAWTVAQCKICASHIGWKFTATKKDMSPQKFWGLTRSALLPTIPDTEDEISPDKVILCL
Chain of CRBN/DDB1 (Q16531 whole entry partner, species assumed): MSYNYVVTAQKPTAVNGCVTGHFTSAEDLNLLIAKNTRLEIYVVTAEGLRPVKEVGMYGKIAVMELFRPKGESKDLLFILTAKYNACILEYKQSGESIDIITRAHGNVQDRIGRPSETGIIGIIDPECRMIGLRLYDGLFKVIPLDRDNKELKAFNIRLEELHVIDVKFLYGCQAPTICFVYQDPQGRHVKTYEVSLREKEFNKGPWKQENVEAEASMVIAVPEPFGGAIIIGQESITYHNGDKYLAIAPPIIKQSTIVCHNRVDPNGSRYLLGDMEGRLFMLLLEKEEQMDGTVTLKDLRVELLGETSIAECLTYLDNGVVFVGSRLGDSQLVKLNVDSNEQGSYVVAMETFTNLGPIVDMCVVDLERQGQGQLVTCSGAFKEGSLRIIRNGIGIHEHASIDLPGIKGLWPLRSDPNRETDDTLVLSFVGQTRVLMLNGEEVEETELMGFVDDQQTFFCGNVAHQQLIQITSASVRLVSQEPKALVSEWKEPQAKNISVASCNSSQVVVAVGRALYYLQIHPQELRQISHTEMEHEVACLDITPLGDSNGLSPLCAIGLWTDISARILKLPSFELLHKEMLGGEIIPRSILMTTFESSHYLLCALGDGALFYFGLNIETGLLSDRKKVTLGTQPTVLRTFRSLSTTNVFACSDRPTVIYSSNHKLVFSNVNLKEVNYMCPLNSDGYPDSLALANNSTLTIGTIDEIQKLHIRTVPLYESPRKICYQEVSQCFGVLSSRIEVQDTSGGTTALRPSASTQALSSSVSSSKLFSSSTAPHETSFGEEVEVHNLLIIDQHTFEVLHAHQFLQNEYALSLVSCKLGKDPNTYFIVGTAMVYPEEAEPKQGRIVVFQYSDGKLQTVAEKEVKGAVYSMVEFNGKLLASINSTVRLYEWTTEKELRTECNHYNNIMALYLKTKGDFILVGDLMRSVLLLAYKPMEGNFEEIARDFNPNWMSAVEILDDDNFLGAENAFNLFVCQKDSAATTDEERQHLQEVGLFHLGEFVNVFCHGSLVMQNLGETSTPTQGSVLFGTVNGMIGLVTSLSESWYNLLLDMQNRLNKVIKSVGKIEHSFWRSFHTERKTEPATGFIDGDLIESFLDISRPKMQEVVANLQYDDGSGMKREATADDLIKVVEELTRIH
Chain of IKZF1 (Q13422 whole entry): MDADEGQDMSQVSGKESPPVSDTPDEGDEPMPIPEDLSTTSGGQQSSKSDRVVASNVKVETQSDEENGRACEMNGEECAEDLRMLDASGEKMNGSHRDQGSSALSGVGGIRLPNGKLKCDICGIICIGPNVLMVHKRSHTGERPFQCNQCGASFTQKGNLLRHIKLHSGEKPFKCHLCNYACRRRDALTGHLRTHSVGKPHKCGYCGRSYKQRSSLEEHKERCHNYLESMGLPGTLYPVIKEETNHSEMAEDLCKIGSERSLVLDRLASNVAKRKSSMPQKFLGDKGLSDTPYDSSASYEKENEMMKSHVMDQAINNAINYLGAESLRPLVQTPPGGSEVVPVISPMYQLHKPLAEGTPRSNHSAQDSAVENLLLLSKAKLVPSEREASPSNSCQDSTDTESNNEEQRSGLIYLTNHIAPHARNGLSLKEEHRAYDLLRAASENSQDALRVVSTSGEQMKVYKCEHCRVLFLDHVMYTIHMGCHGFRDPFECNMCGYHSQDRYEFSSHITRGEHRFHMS
Chain of IKZF1 (Q96SW2 whole entry): as the sequence (Q96SW2 whole entry, species assumed) above
Chain of IKZF1 (Q16531 2-1140 partner): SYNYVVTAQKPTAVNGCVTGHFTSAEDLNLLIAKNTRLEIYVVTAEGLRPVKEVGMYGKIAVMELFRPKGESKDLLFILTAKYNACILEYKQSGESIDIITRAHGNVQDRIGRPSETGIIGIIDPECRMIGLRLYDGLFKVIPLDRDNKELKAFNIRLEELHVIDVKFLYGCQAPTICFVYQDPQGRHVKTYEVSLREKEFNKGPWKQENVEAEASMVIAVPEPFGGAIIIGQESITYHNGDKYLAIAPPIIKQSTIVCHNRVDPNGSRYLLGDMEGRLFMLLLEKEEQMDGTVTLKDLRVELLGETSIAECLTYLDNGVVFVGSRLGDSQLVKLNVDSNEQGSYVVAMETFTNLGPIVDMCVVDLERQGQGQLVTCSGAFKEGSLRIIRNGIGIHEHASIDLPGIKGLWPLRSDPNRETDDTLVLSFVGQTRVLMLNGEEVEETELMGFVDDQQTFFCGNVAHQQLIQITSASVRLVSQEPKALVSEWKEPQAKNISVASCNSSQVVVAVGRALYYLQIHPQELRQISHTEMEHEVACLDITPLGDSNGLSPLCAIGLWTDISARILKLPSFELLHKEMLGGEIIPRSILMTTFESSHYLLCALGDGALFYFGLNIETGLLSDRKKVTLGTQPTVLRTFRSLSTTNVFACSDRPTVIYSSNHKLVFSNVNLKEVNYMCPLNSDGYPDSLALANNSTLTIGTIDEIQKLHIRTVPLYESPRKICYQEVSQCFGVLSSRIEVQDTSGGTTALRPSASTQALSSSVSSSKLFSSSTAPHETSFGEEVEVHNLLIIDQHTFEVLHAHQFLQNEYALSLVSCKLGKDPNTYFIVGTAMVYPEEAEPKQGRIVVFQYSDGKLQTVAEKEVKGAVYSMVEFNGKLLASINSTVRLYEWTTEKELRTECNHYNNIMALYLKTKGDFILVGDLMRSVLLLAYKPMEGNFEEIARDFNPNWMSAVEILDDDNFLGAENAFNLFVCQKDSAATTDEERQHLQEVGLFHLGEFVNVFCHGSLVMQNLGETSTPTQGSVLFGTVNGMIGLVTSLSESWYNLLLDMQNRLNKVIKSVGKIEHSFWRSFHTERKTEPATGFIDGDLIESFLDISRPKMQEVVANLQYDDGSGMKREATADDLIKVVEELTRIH
T1 sequence (Q9UKS7 whole entry): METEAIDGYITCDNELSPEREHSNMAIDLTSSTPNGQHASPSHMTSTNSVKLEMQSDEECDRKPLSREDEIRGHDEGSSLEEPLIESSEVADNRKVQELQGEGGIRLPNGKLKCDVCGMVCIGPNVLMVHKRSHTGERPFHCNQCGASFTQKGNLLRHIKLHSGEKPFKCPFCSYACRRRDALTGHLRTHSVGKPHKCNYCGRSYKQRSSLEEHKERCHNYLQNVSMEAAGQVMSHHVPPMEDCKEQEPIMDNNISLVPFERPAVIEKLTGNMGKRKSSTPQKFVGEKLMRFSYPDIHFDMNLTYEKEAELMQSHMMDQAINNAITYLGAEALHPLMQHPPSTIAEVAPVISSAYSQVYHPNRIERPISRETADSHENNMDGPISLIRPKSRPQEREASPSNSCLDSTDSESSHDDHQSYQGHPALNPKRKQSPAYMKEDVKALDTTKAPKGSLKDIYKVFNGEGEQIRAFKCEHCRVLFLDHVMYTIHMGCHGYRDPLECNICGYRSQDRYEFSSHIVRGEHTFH
T1 sequence (Q96SW2 whole entry): as the sequence (Q96SW2 whole entry, species assumed) above
T1 sequence (Q16531 2-1140 partner): as the sequence (Q16531 2-1140 partner) above

With `O=C1CCC(N2Cc3c(ccc(-c4cc(CN5CCCC5)c5ccn(C6COC6)c5n4)c3Cl)C2=O)C(=O)N1` (centres unmarked) [Example 228, 3-(4-chloro-5-(1-(oxetan-3-yl)-4-(pyrrolidin-1-ylmethyl)-1H-pyrrolo[2,3-b]pyridin-6-yl)-1-oxoisoindolin-2-yl) piperidine-2,6-dione] the DC50 (IKZF2 [1]) was 10 to 100 nM, the Dmax (IKZF2 [1]) was 60 to 80% and the DC50 (IKZF2 [2]) was 1 to 10 nM. For the same molecule, the Dmax (IKZF2 [2]) was 60 to 80%, the IC50 (CRBN/DDB1) was 100 to 500 nM and the DC50 (IKZF1) was > 10000 nM. The Dmax (IKZF1) was < 20%.

In the case of `Cn1ccc2c(CN3CCCC3)c(Cl)c(-c3ccc4c(c3)CN(C3CCC(=O)NC3=O)C4=O)nc21` (centres unmarked) [Example 229, 3-(5-(5-chloro-1-methyl-4-(pyrrolidin-1-ylmethyl)-1H-pyrrolo[2,3-b]pyridin-6-yl)-1-oxoisoindolin-2-yl) piperidine-2,6-dione], the DC50 (IKZF2 [1]) is reported as 1 to 10 nM, the Dmax (IKZF2 [1]) is reported as 60 to 80% and the DC50 (IKZF2 [2]) is reported as 1 to 10 nM. The Dmax (IKZF2 [2]) was 60 to 80%, the IC50 (CRBN/DDB1) was 100 to 500 nM and the DC50 (IKZF1) was > 10000 nM. For the same molecule, the Dmax (IKZF1) was < 20%.

`O=C1CCC(N2Cc3c(ccc(-c4cc(CN5CCCC5)c5ccn(C6CS(=O)(=O)C6)c5n4)c3Cl)C2=O)C(=O)N1` (centres unmarked) [Example 230, 3-(4-chloro-5-(1-(1,1-dioxidothietan-3-yl)-4-(pyrrolidin-1-ylmethyl)-1H-pyrrolo[2,3-b]pyridin-6-yl)-1-oxoisoindolin-2-yl) piperidine-2,6-dione] was tested, and the DC50 (IKZF2 [1]) was 1 to 10 nM, the Dmax (IKZF2 [1]) was > 80% and the DC50 (IKZF2 [2]) was 1 to 10 nM. The Dmax (IKZF2 [2]) was 60 to 80%, the IC50 (CRBN/DDB1) was 100 to 500 nM and the DC50 (IKZF1) was > 10000 nM. The Dmax (IKZF1) was < 20%.

`CC(C)Oc1ccnc2c(CN3CCCC3)cc(-c3ccc4c(c3)CN(C3CCC(=O)NC3=O)C4=O)nc12` (centres unmarked) [Example 232, 3-(5-(8-isopropoxy-4-(pyrrolidin-1-ylmethyl)-1,5-naphthyridin-2-yl)-1-oxoisoindolin-2-yl) piperidine-2,6-dione] showed a DC50 (IKZF2 [1]) of 10 to 100 nM, a Dmax (IKZF2 [1]) of 60 to 80% and a DC50 (IKZF2 [2]) of 1 to 10 nM. For the same molecule, the Dmax (IKZF2 [2]) was 60 to 80%, the IC50 (CRBN/DDB1) was 500 to 1000 nM and the DC50 (IKZF1) was > 10000 nM. For the same molecule, the Dmax (IKZF1) was < 20%.

For `CC(C)Nc1ccnc2c(CN3CCCC3)cc(-c3ccc4c(c3)CN(C3CCC(=O)NC3=O)C4=O)nc12` (centres unmarked) [Example 236, 3-(5-(8-(isopropylamino)-4-(pyrrolidin-1-ylmethyl)-1,5-naphthyridin-2-yl)-1-oxoisoindolin-2-yl) piperidine-2,6-dione], the DC50 (IKZF2 [1]) was > 1000 nM, the Dmax (IKZF2 [1]) was < 20% and the DC50 (IKZF2 [2]) was 10 to 100 nM. For the same molecule, the Dmax (IKZF2 [2]) was 20 to 40%, the IC50 (CRBN/DDB1) was 1000 to 5000 nM and the DC50 (IKZF1) was > 10000 nM. The Dmax (IKZF1) was < 20%.

Molecule `CN(C)c1ccnc2c(CN3CCCC3)cc(-c3ccc4c(c3)CN(C3CCC(=O)NC3=O)C4=O)nc12` (centres unmarked) [Example 237, 3-(5-(8-(dimethylamino)-4-(pyrrolidin-1-ylmethyl)-1,5-naphthyridin-2-yl)-1-oxoisoindolin-2-yl) piperidine-2,6-dione] has a DC50 (IKZF2 [1]) of 10 to 100 nM, a Dmax (IKZF2 [1]) of 40 to 60% and a DC50 (IKZF2 [2]) of 10 to 100 nM. The Dmax (IKZF2 [2]) was 60 to 80%, the IC50 (CRBN/DDB1) was 1000 to 5000 nM and the DC50 (IKZF1) was 1 to 10 nM. For the same molecule, the Dmax (IKZF1) was 20 to 40%.

In the case of `O=C1CCC(N2Cc3cc(-c4cc(CN5CCCC5)c5nccc(OC6CCC6)c5n4)ccc3C2=O)C(=O)N1` (centres unmarked) [Example 239, 3-(5-(8-cyclobutoxy-4-(pyrrolidin-1-ylmethyl)-1,5-naphthyridin-2-yl)-1-oxoisoindolin-2-yl) piperidine-2,6-dione], the DC50 (IKZF2 [1]) is reported as 10 to 100 nM, the Dmax (IKZF2 [1]) is reported as 60 to 80% and the DC50 (IKZF2 [2]) is reported as 1 to 10 nM. For the same molecule, the Dmax (IKZF2 [2]) was 60 to 80%, the IC50 (CRBN/DDB1) was 1000 to 5000 nM and the DC50 (IKZF1) was > 10000 nM. For the same molecule, the Dmax (IKZF1) was < 20%.

With `O=C1CCC(N2Cc3cc(-c4cc(CN5CCCC5)c5[nH]ncc5n4)ccc3C2=O)C(=O)N1` (centres unmarked) [Example 307, 3-(1-oxo-5-(7-(pyrrolidin-1-ylmethyl)-1H-pyrazolo[4,3-b]pyridin-5-yl)isoindolin-2-yl) piperidine-2,6-dione] the DC50 (IKZF2 [1]) was 1 to 10 nM, the Dmax (IKZF2 [1]) was > 80% and the DC50 (IKZF2 [2]) was 1 to 10 nM. For the same molecule, the Dmax (IKZF2 [2]) was > 80%, the IC50 (CRBN/DDB1) was 100 to 500 nM and the DC50 (IKZF1) was 1000 to 10000 nM. It also gave a Dmax (IKZF1) of 20 to 40%.
